# What was measured:
# [1] = biological target: recombinant PARP1 (AA662-1014) protein (Homo sapiens (Human), UniProt P09874); assay: Tracer displacement fluorescence polarization assay; settings: displacement of AlexaFluor488 tracer from NAD+-binding site, PARP1 25 nM
# Experimental: Example B. Tracer Displacement Fluorescence Polarization Assays
# Displacement of AlexaFlour488 marked tracer from the NAD+-binding site of recombinant PARP1 (AA662-1014) protein (OriGene, Cat #: AR09368PU-L) was measured in vitro using Fluorescence polarization assay. The reaction was carried out in assay buffer (50 mM TRIS-HCl pH 7.4-7.8, 150 mM NaCl, 10 mM MgCl2, 0.001% Triton-X). 2×PARP1 (final concentration 25 nM) was diluted in 1× Assay buffer and 10 μl of the solution per well was added into 384-well Black Non-Treated Reaction plate (Corning, Cat #4511). Plates were centrifuged for 1 min at 200 g. The compounds were prepared in a 384-well Diamond Well Plate (Axygen, Cat #P-384-120SQ-C-S) as 400× solutions in DMSO and were transferred into Reaction plate using the Biomek FX liquid handling system with intermediate dilution down to 10× working solution in assay buffer in a separate 384-well Diamond Well Plate (Axygen, Cat #P-384-120SQ-C-S) (2 μl per well). Plates were centrifuged for 1 min at 200 g and incubated for 15 min at room temperature in the dark. Then 8 μL per well of 2.5× Tracer AlexaFluor488 (final concentration 1 nM) diluted in 1× Assay buffer was added into Reaction plate. 1× Assay buffer was used to make blank samples for instrument calculations. Plates were incubated for 30 minutes at room temperature in the dark. Fluorescence polarization was measured using Microplate Reader (BMG, ClarioStar Plus). The % tracer displacement was used to calculate the IC50 values. The IC50 values are shown in Table A, wherein “A” corresponds to IC50<0.01 μM, “B” corresponds to 0.01 μM≤IC50<0.1 μM, “C” 0.1 μM≤IC50<[…], and “D” corresponds to […].
# recombinant Wee1 protein = recombinant Wee1 protein (Homo sapiens (Human), UniProt P30291); assay: Wee1 enzymatic activity inhibition, ADP-Glo luminescence assay; assay type: biochemical; settings: recombinant Wee1, PolyE4Y1 substrate, 1 h room temperature
# Experimental: Example A. Primary Assay Used to Determine Potency of Wee1 Enzymatic Activity Inhibition
# Compound activity was determined using recombinant Wee1 protein (BPS, Cat #40412) and PolyE4Y1 Substrate (Poly(Glu,Tyr) sodium salt, Sigma, Cat #P0275-25MG) in an in vitro enzymatic reaction. The enzymatic assay used to determine activity was a Luminescence assay using a Microplate Reader (BMG, ClarioStar Plus). The enzymatic reaction was carried out in assay buffer (40 mM TRIS-HCl pH 7.4-7.6, 20 mM MgCl2, 0.05 mM DTT, 0.1 mg/ml BSA, 5 mM MnCl2). The compounds were dispensed on a 384 well Diamond Well Plate (Axigen, Cat #P-384-120SQ-C-S) using the Biomek FX liquid handling system at 100× solutions of compounds in DMSO. 2×Wee1-PolyE4Y1 mix (final concentration 0.85 ng/μl of Wee1 and 0.2 μg/μl of PolyE4Y1) was prepared in 1× Assay buffer and 5.5 μl of mixture per well was added into 384w white Reaction plate with NBS (Corning, Cat #4513). 5.5 μl of PolyE4Y1 substrate w/o Wee1 in 1× buffer was used for negative control. Plates were centrifuged for 1 min at 100 g. Next step the Compounds were added to Reaction plate using Biomek station via following steps: 1 μl of 100× compounds (in DMSO) were mixed thoroughly with 49 μl of 2×10 μM ATP in Assay Buffer, then 5.5 μl of this mixture was added to Reaction plate with 5.5 μl of Wee1-PolyE4Y1 mix. Plates were centrifuged for 1 min at 100 g and incubated for 1 h at room temperature. Next 3 μL of ADP-Glo reagent (Promega, ADP-Glo™ Kinase Assay, Cat #V9102) per well was added. Plates were incubated for 30 minutes at room temperature. Then 6 μL of Kinase detection reagent (Promega, ADP-Glo™ Kinase Assay, Cat #V9102) per well was added and the Luminescence was measured using Microplate Reader. The % inhibition was then used to calculate the IC50 values. The IC50 values are shown in Table A, wherein “A” corresponds to IC50<0.01 μM, “B” corresponds to 0.01 μM≤IC50<0.1 μM, “C” 0.1 μM≤IC50<1 μM, and “D” corresponds to […].
# recombinant PARP1 (AA662-1014) protein, sequence (P09874 662-1014): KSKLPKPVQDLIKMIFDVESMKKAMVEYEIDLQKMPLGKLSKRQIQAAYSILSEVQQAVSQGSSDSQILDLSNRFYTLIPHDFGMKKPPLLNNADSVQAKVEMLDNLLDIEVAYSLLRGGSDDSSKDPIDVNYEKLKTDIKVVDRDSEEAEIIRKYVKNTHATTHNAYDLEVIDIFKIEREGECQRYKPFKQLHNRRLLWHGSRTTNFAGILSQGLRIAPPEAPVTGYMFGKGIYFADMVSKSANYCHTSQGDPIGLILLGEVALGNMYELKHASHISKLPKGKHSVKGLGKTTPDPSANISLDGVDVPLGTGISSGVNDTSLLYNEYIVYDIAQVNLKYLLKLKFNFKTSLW
# recombinant Wee1 protein, sequence (P30291 whole entry): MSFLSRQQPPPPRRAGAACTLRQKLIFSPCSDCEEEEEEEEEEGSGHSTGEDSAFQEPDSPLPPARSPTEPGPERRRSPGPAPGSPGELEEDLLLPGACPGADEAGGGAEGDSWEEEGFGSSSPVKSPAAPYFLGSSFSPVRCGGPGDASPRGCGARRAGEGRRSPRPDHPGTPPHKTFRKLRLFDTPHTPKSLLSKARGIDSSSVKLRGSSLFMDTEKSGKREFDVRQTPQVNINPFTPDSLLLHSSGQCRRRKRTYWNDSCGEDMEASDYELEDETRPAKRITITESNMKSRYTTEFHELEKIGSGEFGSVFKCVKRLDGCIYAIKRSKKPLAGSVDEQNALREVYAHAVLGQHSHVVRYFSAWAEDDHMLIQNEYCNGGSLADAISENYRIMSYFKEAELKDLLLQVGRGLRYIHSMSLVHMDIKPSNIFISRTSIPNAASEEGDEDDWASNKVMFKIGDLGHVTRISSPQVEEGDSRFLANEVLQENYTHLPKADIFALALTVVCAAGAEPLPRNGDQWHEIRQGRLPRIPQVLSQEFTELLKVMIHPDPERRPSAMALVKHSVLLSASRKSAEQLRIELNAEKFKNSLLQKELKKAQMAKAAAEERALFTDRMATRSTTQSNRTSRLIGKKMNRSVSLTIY
EC50 [1] [nM],EC50 (recombinant Wee1 protein) [nM],Structure (SMILES)
10 to 100,,"C=CCn1c(=O)c2cnc(N3CCN(C(=O)c4cc(Cc5n[nH]c(=O)c6ccccc56)ccc4F)CC3)nc2n1-c1cccc(C(C)(C)O)n1 [Compound 2, 4-{3-[(4-{2-Allyl-1-[6-(1-hydroxy-1-methylethyl)pyridin-2-yl]-3-oxo-2,3-dihydro-1H-pyrazolo[3,4-d]pyrimidin-6-yl}piperazin-1-yl)carbonyl]-4-fluorobenzyl}phthalazin-1(2H)-one]"
100 to 1000,,"C=CCn1c(=O)c2cnc(NC3CCN(C(=O)c4cc(Cc5n[nH]c(=O)c6ccccc56)ccc4F)CC3)nc2n1-c1cccc(C(C)(C)O)n1 [Compound 4, 4-(3-{[4-({2-Allyl-1-[6-(1-hydroxy-1-methylethyl)pyridin-2-yl]-3-oxo-2,3-dihydro-1H-pyrazolo[3,4-d]pyrimidin-6-yl}amino)piperidin-1-yl]carbonyl}-4-fluorobenzyl)phthalazin-1(2H)-one]"
10 to 100,,"Cn1c(=O)c2cnc(N3CCN(C(=O)c4cc(Cc5n[nH]c(=O)c6ccccc56)ccc4F)CC3)nc2n1-c1ccccn1 [Compound 5, 4-(4-Fluoro-3-{[4-(2-methyl-3-oxo-1-pyridin-2-yl-2,3-dihydro-1H-pyrazolo[3,4-d]pyrimidin-6-yl)piperazin-1-yl]carbonyl}benzyl)phthalazin-1(21)-one]"
100 to 1000,,"C=CCn1c(=O)c2cnc(NCCNC(=O)c3cc(Cc4n[nH]c(=O)c5ccccc45)ccc3F)nc2n1-c1cccc(C(C)(C)O)n1 [Compound 6, N-[2-({2-Allyl-1-[6-(1-hydroxy-1-methylethyl)pyridin-2-yl]-3-oxo-2,3-dihydro-1H-pyrazolo[3,4-d]pyrimidin-6-yl}amino)ethyl]-2-fluoro-5-[(4-oxo-3,4-dihydrophthalazin-1-yl)methyl]benzamide]"
< 10,,"Cn1c(=O)c2cnc(Nc3ccc(N4CCN(C(=O)c5cc(Cc6n[nH]c(=O)c7ccccc67)ccc5F)CC4)cc3)nc2n1-c1cccc(C(C)(C)O)n1 [Compound 7, 4-[4-Fluoro-3-({4-[4-({1-[6-(1-hydroxy-1-methylethyl)pyridin-2-yl]-2-methyl-3-oxo-2,3-dihydro-1H-pyrazolo[3,4-d]pyrimidin-6-yl}amino)phenyl]piperazin-1-yl}carbonyl)benzyl]phthalazin-1(2H)-one]"
100 to 1000,,"Cn1c(=O)c2cnc(Nc3ccc(N4CCN(Cc5cc(Cc6n[nH]c(=O)c7ccccc67)ccc5F)CC4)cc3)nc2n1-c1cccc(C(C)(C)O)n1 [Compound 8, 4-[4-Fluoro-3-({4-[4-({1-[6-(1-hydroxy-1-methylethyl)pyridin-2-yl]-2-methyl-3-oxo-2,3-dihydro-1H-pyrazolo[3,4-d]pyrimidin-6-yl}amino)phenyl]piperazin-1-yl}methyl)benzyl]phthalazin-1(2H)-one]"
< 10,10 to 100,"COCCn1c(=O)c2cnc(Nc3ccc(N4CCN(C(=O)c5cc(Cc6n[nH]c(=O)c7ccccc67)ccc5F)CC4)cc3)nc2n1-c1ccccn1 [Compound 9, 4-(4-Fluoro-3-{[4-(4-{[2-(2-methoxyethyl)-3-oxo-1-pyridin-2-yl-2,3-dihydro-1H-pyrazolo[3,4-d]pyrimidin-6-yl]amino}phenyl)piperazin-1-yl]carbonyl}benzyl)phthalazin-1(2H)-one]"
< 10,,"Cn1c2nc(Nc3ccc(N4CCN(C(=O)c5cc(Cc6n[nH]c(=O)c7ccccc67)ccc5F)CC4)cc3)ncc2c(=O)n1-c1ccccn1 [Compound 12, 4-{4-Fluoro-3-[(4-{4-[(1-methyl-3-oxo-2-pyridin-2-yl-2,3-dihydro-1H-pyrazolo[3,4-d]pyrimidin-6-yl)amino]phenyl}piperazin-1-yl)carbonyl]benzyl}phthalazin-1(2H)-one]"
< 10,10 to 100,"COCCn1c(=O)c2cnc(Nc3ccc(N4CCN(C(=O)c5cc(Cc6n[nH]c(=O)c7ccccc67)ccc5F)CC4)cc3)nc2n1-c1cccc(C(C)(C)O)n1 [Compound 13, 4-(4-Fluoro-3-{[4-(4-{[1-[6-(1-hydroxy-1-methylethyl)pyridin-2-yl]-2-(2-methoxyethyl)-3-oxo-2,3-dihydro-1H-pyrazolo[3,4-d]pyrimidin-6-yl]amino}phenyl)piperazin-1-yl]carbonyl}benzyl)phthalazin-1(2H)-one]"
100 to 1000,10 to 100,"C=CCn1c(=O)c2cnc(Nc3ccc(N4CCN(Cc5cc(Cc6n[nH]c(=O)c7ccccc67)ccc5F)CC4)cc3)nc2n1-c1cccc(C(C)(C)O)n1 [Compound 14, 4-[3-({4-[4-({2-Allyl-1-[6-(1-hydroxy-1-methylethyl)pyridin-2-yl]-3-oxo-2,3-dihydro-1H-pyrazolo[3,4-d]pyrimidin-6-yl}amino)phenyl]piperazin-1-yl}methyl)-4-fluorobenzyl]phthalazin-1(2H)-one]"
< 10,,"Cn1c2nc(Nc3ccc(N4CCN(C(=O)c5cc(Cn6c(=O)[nH]c(=O)c7c(F)cccc76)ccc5F)CC4)cc3)ncc2c(=O)n1-c1ccccn1 [Compound 17, 5-Fluoro-1-{4-fluoro-3-[(4-{4-[(1-methyl-3-oxo-2-pyridin-2-yl-2,3-dihydro-1H-pyrazolo[3,4-d]pyrimidin-6-yl)amino]phenyl}piperazin-1-yl)carbonyl]benzyl}quinazoline-2,4(1H,3H)-dione]"
< 10,,"C=CCn1c(=O)c2cnc(Nc3ccc(N4CCN(C(=O)c5cc(Cn6c(=O)[nH]c(=O)c7c(F)cccc76)ccc5F)CC4)cc3)nc2n1-c1ccccn1 [Compound 28, 1-{3-[(4-{4-[(2-Allyl-3-oxo-1-pyridin-2-yl-2,3-dihydro-1H-pyrazolo[3,4-d]pyrimidin-6-yl)amino]phenyl}piperazin-1-yl)carbonyl]-4-fluorobenzyl}-5-fluoroquinazoline-2,4(1H,3H)-dione]"
100 to 1000,,"C=CCn1c(=O)c2cnc(Nc3ccc(N4CCN(Cc5cc(Cn6c(=O)[nH]c(=O)c7c(F)cccc76)ccc5F)CC4)cc3)nc2n1-c1cccc(C(C)(C)O)n1 [Compound 34, 1-[3-({4-[4-({2-Allyl-1-[6-(1-hydroxy-1-methylethyl)pyridin-2-yl]-3-oxo-2,3-dihydro-1H-pyrazolo[3,4-d]pyrimidin-6-yl}amino)phenyl]piperazin-1-yl}methyl)-4-fluorobenzyl]-5-fluoroquinazoline-2,4(1H,3H)-dione]"
10 to 100,,"C=CCn1c(=O)c2cnc(Nc3ccc(N4CCN(Cc5ccc(-c6[nH]c7cc(F)cc8c7c6CCNC8=O)cc5)CC4)cc3)nc2n1-c1ccccn1 [Compound 39, 2-[4-[[4-[4-[[2-Allyl-3-oxo-1-(2-pyridyl)pyrazolo[3,4-d]pyrimidin-6-yl]amino]phenyl]piperazin-1-yl]methyl]phenyl]-6-fluoro-3,10-diazatricyclo[6.4.1.04,13]trideca-1,4,6,8(13)-tetraen-9-one]"
< 10,,"C=CCn1c(=O)c2cnc(NC3CCN(Cc4ccc(-c5[nH]c6cc(F)cc7c6c5CCNC7=O)cc4)CC3)nc2n1-c1cccc(C(C)(C)O)n1 [Compound 47, 2-(4-{[4-({2-Allyl-1-[6-(1-hydroxy-1-methylethyl)pyridin-2-yl]-3-oxo-2,3-dihydro-1H-pyrazolo[3,4-d]pyrimidin-6-yl}amino)piperidin-1-yl]methyl}phenyl)-8-fluoro-1,3,4,5-tetrahydro-6H-azepino[5,4,3-cd]indol-6-one]"
10 to 100,,Cn1c2nc(Nc3ccc(N4CCC(c5nc6cccc(C(N)=O)c6[nH]5)CC4)cc3)ncc2c(=O)n1-c1ccccn1 [Compound 91]

# From patent US20250270212A1, “CHIMERIC COMPOUNDS USEFUL IN TREATING DISEASES” (Padarn Therapeutics, Inc., priority 2021, published 2025)
